Assays:
Format in all cases: in vivo
[1] = test system: Amaranthus retroflexus; experiment: Herbicidal effect post-emergence; settings: 320 g/ha, visual grading after ca. 3 weeks (Table 9)
From the text: (§1) Herbicidal activities of the compounds of the formulae (G1) or (G2) according to the invention were investigated against the following harmful plants: • ALOMY=Alopecurus myosuroides • ECHCG=Echinochloa crus-galli • SETVI=Setaria viridis • ABUTH=Abutilon theophrasti • AMARE=Amaranthus retroflexus • PHBPU=Pharbitis purpurea • POLCO=Polygonum convolvulus (=Fallopia convolvulus) • STEME=Stellaria media • VIOTR=Viola tricolor
(§2) Seeds of mono- and dicotyledonous weed plants and crop plants are sown in wood-fiber pots in sandy loam, covered with soil and grown in a greenhouse under controlled growth conditions. 2 to 3 weeks after sowing, the test plants are sprayed in the single-leaf stage. The compounds according to the invention, formulated in form of wettable powders (WP) or as emulsifiable concentrates (EC), are then sprayed onto the green plant parts as aqueous suspension or emulsion, with the addition of 0.5% of an additive, at an application rate of 600 l of water/ha (converted). After the test plants had been in the greenhouse for ca. 3 weeks under optimum growth conditions, the effect of the preparations is assessed visually in comparison with untreated controls (herbicidal effect in percent (%): 100% effect=plants have died off, 0% effect=as control plants).

[2] = test system: Setaria viridis; experiment: Herbicidal effect post-emergence; settings: 320 g/ha, visual grading after ca. 3 weeks (Table 9)
From the text: as §1, §2

[3] = test system: Viola tricolor; experiment: Herbicidal effect post-emergence; settings: 320 g/ha, visual grading after ca. 3 weeks (Table 9)
From the text: as §1, §2

[4] = test system: Amaranthus retroflexus; experiment: Herbicidal effect pre-emergence; settings: 320 g/ha, visual grading after ca. 3 weeks vs untreated controls
From the text: as §1
(§3) Seeds of mono- and dicotyledonous weed plants and crop plants are sown in wood-fiber pots in sandy loam and covered with soil. The compounds according to the invention, formulated in the form of wettable powders (WP) or as emulsifiable concentrates (EC), are then applied to the surface of the covering soil as aqueous suspension or emulsion, with the addition of 0.5% of an additive, at an application rate of 600 l of water/ha (converted).
(§4) Following treatment, the pots are placed in a greenhouse and kept under optimum growth conditions for the test plants. The visual grading of the damage to the test plants is carried out after ca. 3 weeks in comparison to untreated controls (herbicidal effect in percent (%): 100% effect=plants have died off, 0% effect=as control plants).

[5] = test system: Setaria viridis; experiment: Herbicidal effect pre-emergence; settings: 320 g/ha, visual grading after ca. 3 weeks vs untreated controls
From the text: as §1, §3, §4

[6] = test system: Viola tricolor; experiment: Herbicidal effect pre-emergence; settings: 320 g/ha, visual grading after ca. 3 weeks vs untreated controls
From the text: as §1, §3, §4

Row | SMILES | herbicidal effect AMARE [1] | herbicidal effect SETVI [2] | herbicidal effect VIOTR [3] | herbicidal effect AMARE [4] | herbicidal effect SETVI [5] | herbicidal effect VIOTR [6]
1 | CCO/N=C(/C)c1cn(CC2CCCCC2)c(=O)c2snc(N)c12 [Example I-142] | 100% | 100% | 80% | – | – | –
2 | CC(=O)c1cn(CC2CCCCC2)c(=O)c2c1C(N)=NS2(=O)=O [Example I-158] | – | – | – | 90% | 80% | 100%
3 | COC(C)(C)C#Cc1cn(CC2CCCCC2)c(=O)c2snc(N)c12 [Example I-105] | – | – | – | 100% | 100% | 100%
4 | CCC(=O)OCc1cc2c(N)nsc2c(=O)n1CC1CCCCC1 [Example I-046] | – | – | – | 100% | 100% | 90%
5 | CCC(=O)N(C(=O)CC)c1nsc2c(=O)n(CC3CCCCC3)cc(Cl)c12 [Example I-082] | 100% | 100% | 100% | 100% | 100% | 100%
6 | C#Cc1cn(CC2CCCCC2)c(=O)c2snc(N)c12 [Example I-070] | 100% | 100% | 100% | 100% | 100% | 100%
7 | Nc1nsc2c1C(O)CN(CC1CCCCC1)C2=O (stereo not drawn) [Example I-144] | – | – | – | 100% | 90% | 100%
8 | C=Cc1cn(CC2CCCCC2)c(=O)c2snc(N)c12 [Example I-080] | 100% | 100% | 80% | 80% | 80% | 100%
9 | CCC(=O)Nc1nsc2c1CC(CO)N(CC1CCCCC1)C2=O (stereo not drawn) [Example I-044] | 100% | 100% | 100% | 100% | 90% | 100%
10 | COCC(=O)Nc1nsc2c(=O)n(CC3CCCCC3)cc(Cl)c12 [Example I-085] | 100% | 100% | 100% | 100% | 100% | 100%
11 | CCC(=O)Nc1nsc2c(=O)n(CC3CCCCC3)c(COC)cc12 [Example I-033] | – | – | – | 100% | 100% | 100%
12 | CC#Cc1cn(CC2CCCCC2)c(=O)c2snc(N)c12 [Example I-115] | 100% | 100% | 100% | – | – | –
13 | Nc1nsc2c(=O)n(CC3CCCCC3Cl)cc(Cl)c12 (racemic) [Example I-155] | – | – | – | 80% | 100% | 100%
14 | COC/C=C/c1cn(CC2CCCCC2)c(=O)c2snc(N)c12 [Example I-108] | 100% | 100% | 100% | – | – | –
15 | CC(C)c1cc2c(NC(=O)C(F)(F)C(F)(F)F)nsc2c(=O)n1CC1CCCCC1 [Example I-021, N-[6-(cyclohexylmethyl)-5-isopropyl-7-oxo-isothiazolo[5,4-c]pyridin-3-yl]-2,2,3,3,3-pentafluoro-propanamide] | 100% | 100% | 80% | 100% | 90% | 100%
16 | CC(O)c1cc2c(N)nsc2c(=O)n1CC1CCCCC1 (stereo not drawn) [Example I-072] | 100% | 80% | 100% | – | – | –
17 | O=C(Nc1nsc2c(=O)n(CC3CCCCC3)c(C3CC3)cc12)C(F)(F)C(F)(F)F [Example I-022] | – | – | – | 100% | 100% | 100%
18 | CC(O)c1cn(CC2CCCCC2)c(=O)c2snc(N)c12 (stereo not drawn) [Example I-147] | 100% | 80% | 100% | – | – | –
19 | CCCc1cn(CC2CCCCC2)c(=O)c2snc(N)c12 [Example I-126] | 100% | 80% | 100% | – | – | –
20 | CCO/C=C/c1cn(CC2CCCCC2)c(=O)c2snc(N)c12 [Example I-113] | 100% | 100% | 100% | – | – | –

— patent publication US10842152B2, “Isothiazolo-based bicycles, processes for their preparation and their use as herbicides and/or plant growth regulators” (Bayer CropScience Aktiengesellschaft, priority 2017, dated 2020)
